Results on nine molecules are retold here after patent US7393824B1, “Methods of peptide preparation” (Lytix Biopharma, priority 2000, dated 2008).

Like-named read-outs stand apart in the source and are kept apart here. Residues, ends and D or L forms follow the SMILES beside them.

Data set [1] has as its system MRC-5 cells (normal fibroblasts). Nature of the data set: Fibroblast assay (MTT). Type of data set: cell-based. How it is done:
The cells were washed with PBS and then trypsinated using 2 ml trypsin (for a 80 cm culture flask). After the cells had detached from the wall, usually after ca 3 min. of incubation, 5 ml medium with FBS were added. The cells were resuspended and counted. The cells were then transferred to a centrifugation tube and spinned at 1500 rpm for 10 min. The supernatant was removed and the cells resuspended to a concentration of 1×10^5 cells/ml. 100 ul cells suspension was transferred to each well in a 96-well microtiter plate and incubated for 25 hours to allow the cells to attach. Following the incubation, the medium containing serum was removed by turning the plate upside down against a piece of tissue. 100 ul medium without serum and L-glutamine (assay medium) was added to each well, and then removed as before. This was done to remove any trace of serum. […] The rest of the assay was done as previously described for methA, except that after the 2 hour incubation following MTT addition, 80 ul medium instead of 130 ul were removed.

Data set [2] deals with Escherichia coli ATCC 25922. Type of data set: cell-based. On the procedure: (§1) The bacterial strains used were: Escherichia coli ATCC 25922 and Staphylococcus aureus ATCC 25923. All strains were stored at −70° C. The bacteria were grown in 2% Bacto Peptone water (Difco 1807-17-4). All tests were performed with bacteria in mid-logarithmic growth phase. Determination of the minimum inhibitory concentration (MIC) of the peptides for bacterial strains were performed in 1% Bacto Peptone water. A standard microdilution technique with an inoculum of 2×10^6 CFU/ml was used. All assays were performed in triplets. Since the peptides are positively charged and therefore could adhere to the plastic wells, we controlled the actual concentration of the peptides in the solution by HPLC. There was no difference between the concentration of the peptides before or after adding the solution to the plastic wells.

Data set [3] deals with Staphylococcus aureus ATCC 25923. Type of data set: cell-based. On the procedure:
as §1

The subject of data set [4] is Meth A murine sarcoma cell line. Type of data set: cell-based.
Description: Peptide solutions (0.1 ml) were added and the plates incubated at 37° C. for 30 minutes, 4 hours or 24 hours. The cytotoxicity was measured using the MTT method (Mosmann et al., J. Immunol. (1986) 136, 2348-2357).
Data set [5] relates to human red blood cells. The data set is described as follows: Hemolytic assay. Type of data set: cell-based. On the procedure: The hemolytic activities of the peptides were determined using fresh human red blood cells. 8 ml blood was taken from a healthy person. 4 ml blood was transferred to a polycarbonate tube containing heparin to a final concentration of 10 U/ml, and the remaining 4 ml blood was transferred to a glass tube containing EDTA with final concentration of 15% EDTA. The erythrocytes were isolated from heparin-treated blood by centrifugation in 1500 rpm for 10 min and washed three times with phosphate-buffered saline (PBS) to remove plasma and buffy coat. The cell pellet was resuspended in PBS to make the final volume of 4 ml. The peptide was diluted to a concentration of 2 mg/ml and 0.1 mg/ml. The peptide was further diluted to the concentrations as stated in Table 1. For each tube PBS was added first, then RBCs and peptide solutions. The hematocrit in the blood treated with EDTA was determined after 30 min with Sysmex K-1000, and the resuspended RBCs were diluted into 10% hematocrit. RBCs in PBS (1%) with and without peptides (Table 18) were incubated in a shaker at […] for 1 hour and then centrifuged at 4000 rpm for 5 min. The supernatant were carefully transferred to new polycarbonate tubes and the absorbance of the supernatant was measured at 540 nm. Baseline hemolysis was hemoglobin released in the presence of PBS, and 100% hemolysis was hemoglobin released in the presence of 0.1% Triton X-100.

Data set [6] deals with fibroblasts. Particulars: cited from earlier work.
Data set [7] deals with S. aureus. Particulars: from the literature; cited from earlier work.
The test system of data set [8] is human erythrocytes. Particulars: cited from earlier work.
In data set [9] the test system is E. coli. Particulars: from the literature; cited from earlier work.

As to `CSCC[C@H](NC(=O)[C@H](CCCNC(=N)N)NC(=O)[C@H](Cc1c[nH]c2ccccc12)NC(=O)[C@H](C)NC(=O)[C@H](Cc1c[nH]c2ccccc12)NC(=O)[C@H](CCCNC(=N)N)NC(=O)[C@H](Cc1ccccc1)NC(=O)[C@H](C)NC(=O)[C@H](CCCCN)NC(=O)[C@H](CCCNC(=N)N)NC(=O)[C@H](C)NC(=O)[C@H](C)NC(=O)[C@@H]1CCCN1)C(=O)N[C@@H](CC(C)C)C(=O)N[C@@H](CCCCN)C(=O)N[C@@H](CCCCN)C(=O)N[C@@H](C)C(=O)N[C@@H](C)C(=O)O` [W3→A3, LFB 14-31A2,3,6,10,17F7K16L14R4] (H-PAARKAFRWAWRMLKKAA-OH), in data set [1], the “toxicity to fibroblasts” value is “little toxicity against fibroblasts”. Further, the “Mic E-coli” value in data set [2] (ATCC 25922) was determined as 6.9 µM. In addition, in data set [3] (ATCC 25923), the “Mic S. Aureus” value was 4.6 µM.
As to `CC[C@H](C)[C@H](NC(=O)[C@H](C)NC(=O)[C@@H]1CCCN1)C(=O)N[C@@H](CCCNC(=N)N)C(=O)N[C@@H](CCCCN)C(=O)N[C@@H](C)C(=O)N[C@@H](Cc1ccccc1)C(=O)N[C@@H](CCCNC(=N)N)C(=O)N[C@@H](Cc1c[nH]c2ccccc12)C(=O)N[C@@H](C)C(=O)N[C@@H](Cc1c[nH]c2ccccc12)C(=O)N[C@@H](CCCNC(=N)N)C(=O)N[C@@H](CCSC)C(=O)N[C@@H](CC(C)C)C(=O)N[C@@H](CCCCN)C(=O)N[C@@H](CCCCN)C(=O)N[C@@H](C)C(=O)N[C@@H](C)C(=O)O` [W3→I3] (H-PAIRKAFRWAWRMLKKAA-OH; N-terminus and C-terminus assumed), the “Mic E-coli” value in [2] (Table 2) was 2/4. For the same molecule, the “Mic S. Aureus” value in data set [3] (Table 2) is listed as 2/4.
Molecule `CSCC[C@H](NC(=O)[C@H](CCCNC(=N)N)NC(=O)[C@H](C)NC(=O)[C@H](C)NC(=O)[C@H](C)NC(=O)[C@H](CCCNC(=N)N)NC(=O)[C@H](Cc1ccccc1)NC(=O)[C@H](C)NC(=O)[C@H](CCCCN)NC(=O)[C@H](CCCNC(=N)N)NC(=O)[C@H](Cc1c[nH]c2ccccc12)NC(=O)[C@H](C)NC(=O)[C@@H]1CCCN1)C(=O)N[C@@H](CC(C)C)C(=O)N[C@@H](CCCCN)C(=O)N[C@@H](CCCCN)C(=O)N[C@@H](C)C(=O)N[C@@H](C)C(=O)O` [W9,11→A9,11, LFB 14-31A2,6,9,10,11,17F7K16L14R4] (H-PAWRKAFRAAARMLKKAA-OH) gave an IC50 in data set [4] (4 h) of 110 µM. In data set [1], the IC50 was > 489 µM and the “toxicity to fibroblasts” value is listed as “no cytotoxic activity”. In addition, in [2] (ATCC 25922), the “Mic E-coli” value came out at 14.7 µM. The “Mic S. Aureus” value in data set [3] (ATCC 25923) amounted to 14.7 µM. In data set [5], the “cytotoxic / hemolytic activity against red blood cells” value is “no cytotoxic activity”. Besides, in [5] (red cells of human), the EC50 is > 489 µM.
As for `CC[C@H](C)[C@H](NC(=O)[C@H](C)NC(=O)[C@@H](NC(=O)[C@H](CCCNC(=N)N)NC(=O)[C@H](Cc1ccccc1)NC(=O)[C@H](C)NC(=O)[C@H](CCCCN)NC(=O)[C@H](CCCNC(=N)N)NC(=O)[C@H](Cc1c[nH]c2ccccc12)NC(=O)[C@H](C)NC(=O)[C@@H]1CCCN1)[C@@H](C)CC)C(=O)N[C@@H](CCCNC(=N)N)C(=O)N[C@@H](CCSC)C(=O)N[C@@H](CC(C)C)C(=O)N[C@@H](CCCCN)C(=O)N[C@@H](CCCCN)C(=O)N[C@@H](C)C(=O)N[C@@H](C)C(=O)O` [W9,11→I9,11] (H-PAWRKAFRIAIRMLKKAA-OH; N-terminus and C-terminus assumed), the values for the IC50 in [4] (4 h) and in [1] were 22 µM and 26 µM, respectively. In data set [2] (ATCC 25922), the “Mic E-coli” value turned out to be 35 µM. In addition, in data set [3] (ATCC 25923), the “Mic S. Aureus” value came to 19 µM. Further, in data set [5] (red cells of human), the midpoint of the response, the EC50, lay at 284 µM.
For `CSCC[C@H](NC(=O)[C@H](CCCNC(=N)N)NC(=O)[C@H](Cc1c[nH]c2ccccc12)NC(=O)[C@H](C)NC(=O)[C@H](C)NC(=O)[C@H](CCCNC(=N)N)NC(=O)[C@H](Cc1ccccc1)NC(=O)[C@H](C)NC(=O)[C@H](CCCCN)NC(=O)[C@H](CCCNC(=N)N)NC(=O)[C@H](Cc1c[nH]c2ccccc12)NC(=O)[C@H](C)NC(=O)[C@@H]1CCCN1)C(=O)N[C@@H](CC(C)C)C(=O)N[C@@H](CCCCN)C(=O)N[C@@H](CCCCN)C(=O)N[C@@H](C)C(=O)N[C@@H](C)C(=O)O` [W9→A9, LFB 14-31A2,6,9,10,17F7K16L14R4] (H-PAWRKAFRAAWRMLKKAA-OH; N-terminus and C-terminus assumed), in data set [2] (ATCC 25922), the “Mic E-coli” value turned out to be 4.6 µM. Moreover, in data set [3] (ATCC 25923), the “Mic S. Aureus” value worked out at 2.4 µM.
Turning to `CSCC[C@H](NC(=O)[C@H](CCCNC(=N)N)NC(=O)[C@H](C)NC(=O)[C@H](C)NC(=O)[C@H](Cc1c[nH]c2ccccc12)NC(=O)[C@H](CCCNC(=N)N)NC(=O)[C@H](Cc1ccccc1)NC(=O)[C@H](C)NC(=O)[C@H](CCCCN)NC(=O)[C@H](CCCNC(=N)N)NC(=O)[C@H](Cc1c[nH]c2ccccc12)NC(=O)[C@H](C)NC(=O)[C@@H]1CCCN1)C(=O)N[C@@H](CC(C)C)C(=O)N[C@@H](CCCCN)C(=O)N[C@@H](CCCCN)C(=O)N[C@@H](C)C(=O)N[C@@H](C)C(=O)O` [W11→A11, LFB 14-31A2,6,10,11,17F7K16L14R4] (H-PAWRKAFRWAARMLKKAA-OH; N-terminus and C-terminus assumed), in [4], the “fold decrease in activity against Meth A compared to LFB(14-31)m” value is 1.5 fold. In data set [4] (4 h), this molecule came in with an IC50 of 11 µM. For the same molecule, the “Mic E-coli” value in data set [2] (ATCC 25922) is 4.6 µM. In addition, the “Mic S. Aureus” value in [3] (ATCC 25923) was >1.2 µM.
As for `CC[C@H](C)[C@H](NC(=O)[C@H](C)NC(=O)[C@H](Cc1c[nH]c2ccccc12)NC(=O)[C@H](CCCNC(=N)N)NC(=O)[C@H](Cc1ccccc1)NC(=O)[C@H](C)NC(=O)[C@H](CCCCN)NC(=O)[C@H](CCCNC(=N)N)NC(=O)[C@H](Cc1c[nH]c2ccccc12)NC(=O)[C@H](C)NC(=O)[C@@H]1CCCN1)C(=O)N[C@@H](CCCNC(=N)N)C(=O)N[C@@H](CCSC)C(=O)N[C@@H](CC(C)C)C(=O)N[C@@H](CCCCN)C(=O)N[C@@H](CCCCN)C(=O)N[C@@H](C)C(=O)N[C@@H](C)C(=O)O` [W11→I11] (H-PAWRKAFRWAIRMLKKAA-OH; N-terminus and C-terminus assumed), the IC50 in data set [4] (4 h) came to 6 µM. The “Mic E-coli” value in data set [2] (Table 2) is “⅖”. This molecule came in with an EC50 in data set [5] (red cells of human) of 63.6 µM.
On to (KAAKKAA)3, for which the “activity against fibroblasts” value in data set [6] is “no measurable activity”. The “MIC against S. aureus” value in data set [7] was 8 µM. Besides, the “activity against human erythrocytes” value in data set [8] is “no measurable activity”. The “MIC against E. coli” value in data set [9] is 8 µM.
Regarding WKWAKKAWKWAKKAA [KA21, 15-mer], the IC50 is 32 µM in data set [4] (Table 3, unit inferred, read-out: Meth A IC50) and > 530 µM in [1] (Table 3, unit inferred, read-out: Fib IC50). The EC50 in data set [5] (Table 3, unit inferred, read-out: RBC EC50) is > 530 µM.
